Laboratory results reported in paper PMC9127186, “Molecular Basis Underlying Hepatobiliary and Renal Excretion of Phenolic Acids of Salvia miltiorrhiza Roots (Danshen)” (Frontiers in Pharmacology, 2022).

How the values were obtained:
human OAT4 = molecular target: T1, human OAT4 (Homo sapiens, UniProt Q9NSA0); assay: Cellular transport assay, HEK-293 cells expressing human OAT4; conditions: for TransportTC/TransportMC ratio (net transport ratio): 10 min; for K m: human renal apical uptake OAT4, 5 min incubation, concentrations in Table 1
T1 sequence (Q9NSA0 1-550): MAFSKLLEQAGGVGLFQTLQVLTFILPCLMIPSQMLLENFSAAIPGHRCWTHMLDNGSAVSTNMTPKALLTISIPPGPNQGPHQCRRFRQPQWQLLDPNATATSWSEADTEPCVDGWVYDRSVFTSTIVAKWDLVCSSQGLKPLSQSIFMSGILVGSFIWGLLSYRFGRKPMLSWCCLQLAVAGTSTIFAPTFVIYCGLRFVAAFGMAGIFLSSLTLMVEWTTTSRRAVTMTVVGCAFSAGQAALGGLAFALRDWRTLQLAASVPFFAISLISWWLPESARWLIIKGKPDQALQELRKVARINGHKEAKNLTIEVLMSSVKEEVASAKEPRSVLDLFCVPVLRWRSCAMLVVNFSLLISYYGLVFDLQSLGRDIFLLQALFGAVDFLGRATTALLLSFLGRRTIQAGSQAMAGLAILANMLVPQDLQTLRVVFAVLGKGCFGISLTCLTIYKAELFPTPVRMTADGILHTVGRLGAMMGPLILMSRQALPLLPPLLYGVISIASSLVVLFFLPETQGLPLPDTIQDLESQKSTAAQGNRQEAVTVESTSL

rat Oat3 = molecular target: T2, rat Oat3 (Rattus norvegicus, UniProt Q9R1U7); assay: Cellular transport assay, HEK-293 cells expressing rat Oat3; conditions: for TransportTC/TransportMC ratio (net transport ratio): 10 min; for K m: rat renal basolateral uptake Oat3, 5 min incubation, concentrations in Table 1
T2 sequence (Q9R1U7 1-536): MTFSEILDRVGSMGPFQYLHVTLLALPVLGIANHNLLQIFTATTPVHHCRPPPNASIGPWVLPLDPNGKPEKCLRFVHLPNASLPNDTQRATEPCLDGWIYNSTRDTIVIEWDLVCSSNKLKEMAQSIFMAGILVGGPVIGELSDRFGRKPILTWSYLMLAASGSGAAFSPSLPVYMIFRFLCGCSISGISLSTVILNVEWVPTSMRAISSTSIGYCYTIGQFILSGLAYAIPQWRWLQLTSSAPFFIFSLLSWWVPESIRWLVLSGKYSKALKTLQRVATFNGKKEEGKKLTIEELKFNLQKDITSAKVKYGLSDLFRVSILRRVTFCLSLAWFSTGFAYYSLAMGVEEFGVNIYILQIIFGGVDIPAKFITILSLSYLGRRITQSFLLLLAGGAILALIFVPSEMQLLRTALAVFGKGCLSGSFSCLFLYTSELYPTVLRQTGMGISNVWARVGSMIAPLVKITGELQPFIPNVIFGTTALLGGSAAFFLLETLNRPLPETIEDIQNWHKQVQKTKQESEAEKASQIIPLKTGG

human OAT2 = molecular target: T3, human OAT2 (Homo sapiens, UniProt Q9Y694); assay: Cellular transport assay, HEK-293 cells expressing human OAT2; conditions: for TransportTC/TransportMC ratio (net transport ratio): 10 min; for K m: human hepatic sinusoidal uptake OAT2 (also renal basolateral), 5 min incubation, concentrations in Table 1
T3 sequence (Q9Y694 1-546 isoform Q9Y694-2): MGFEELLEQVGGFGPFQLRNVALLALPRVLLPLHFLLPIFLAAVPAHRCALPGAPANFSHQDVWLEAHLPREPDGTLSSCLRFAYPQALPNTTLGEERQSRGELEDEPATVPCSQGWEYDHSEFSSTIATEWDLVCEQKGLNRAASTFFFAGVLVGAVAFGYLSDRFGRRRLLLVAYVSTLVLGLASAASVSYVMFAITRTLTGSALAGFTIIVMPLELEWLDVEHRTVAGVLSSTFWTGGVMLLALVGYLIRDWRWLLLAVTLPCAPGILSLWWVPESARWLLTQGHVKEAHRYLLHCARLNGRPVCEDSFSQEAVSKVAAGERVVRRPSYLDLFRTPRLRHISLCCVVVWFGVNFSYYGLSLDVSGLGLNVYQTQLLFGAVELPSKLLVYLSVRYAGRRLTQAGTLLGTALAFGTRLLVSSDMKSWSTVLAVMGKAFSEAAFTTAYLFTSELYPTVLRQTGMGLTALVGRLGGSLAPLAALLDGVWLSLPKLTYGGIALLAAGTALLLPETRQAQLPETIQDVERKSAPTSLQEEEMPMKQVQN
Summary of the method: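 First, HEK-293 cells received either the expression plasmid or empty vector by lipofection; 48 h later they were incubated with test compound for 5 min.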

rat Oat2 = molecular target: T4, rat Oat2 (Rattus norvegicus, UniProt Q5RLM2); assay: Cellular transport assay, HEK-293 cells expressing rat Oat2; conditions: for TransportTC/TransportMC ratio (net transport ratio): 10 min; for K m: rat hepatic sinusoidal uptake Oat2 (also renal apical), 5 min incubation, concentrations in Table 1
T4 sequence (Q5RLM2 1-535): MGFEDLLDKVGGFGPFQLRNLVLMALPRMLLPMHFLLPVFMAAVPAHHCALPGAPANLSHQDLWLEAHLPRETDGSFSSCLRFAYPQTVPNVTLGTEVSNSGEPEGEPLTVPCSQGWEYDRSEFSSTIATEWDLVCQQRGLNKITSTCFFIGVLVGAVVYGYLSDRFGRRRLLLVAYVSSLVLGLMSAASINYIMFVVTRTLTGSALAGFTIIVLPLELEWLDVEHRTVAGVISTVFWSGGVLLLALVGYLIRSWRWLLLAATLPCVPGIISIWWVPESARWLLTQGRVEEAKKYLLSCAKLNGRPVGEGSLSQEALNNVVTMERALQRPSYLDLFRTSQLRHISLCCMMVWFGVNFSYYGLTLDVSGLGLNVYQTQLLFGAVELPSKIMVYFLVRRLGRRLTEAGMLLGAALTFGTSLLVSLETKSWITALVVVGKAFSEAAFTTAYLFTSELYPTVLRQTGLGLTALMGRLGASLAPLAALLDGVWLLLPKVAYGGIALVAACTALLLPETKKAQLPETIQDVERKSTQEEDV

[1] = Danshen phenolic acid at 100 μM final concentration, human OAT4-transfected vs mock cells
[2] = Danshen phenolic acid at 100 μM final concentration, rat Oat3-transfected vs mock cells
[3] = Danshen phenolic acid at 100 μM final concentration, human OAT2-transfected vs mock cells
[4] = Danshen phenolic acid at 100 μM final concentration, rat Oat2-transfected vs mock cells

Compound | TransportTC/TransportMC ratio (net transport ratio) (human OAT4; [1]) | TransportTC/TransportMC ratio (net transport ratio) (rat Oat3; [2]) | TransportTC/TransportMC ratio (net transport ratio) (human OAT2; [3]) | TransportTC/TransportMC ratio (net transport ratio) (rat Oat2; [4]) | substrate of rat Oat3 (rat Oat3) | substrate of human OAT2 (human OAT2) | K m (human OAT2) | substrate of rat Oat2 (rat Oat2) | K m (rat Oat2) [µM] | K m (rat Oat3) | also measured
salvianolic acid B | 0.95 ± 0.23 | 1.12 ± 0.41 | 1.04 ± 0.09 | 0.92 ± 0.22 | – | – | – | – | – | – | –
O=C(O)Cc1c(/C=C/C(=O)O[C@H](Cc2ccc(O)c(O)c2)C(=O)O)ccc(O)c1O [Salvianolic acid D, salvianolic acid D] | 2.87 ± 0.09 | 1.41 ± 0.36 | 314 ± 44 | 50.5 ± 10.7 | not of rat Oat3 | substrates | 111 ± 13 µM | substrates | 60.0 ± 7.2 | – | microsomal CLint (human OAT2; human): 24.3 µL/min/mg; microsomal CLint (rat Oat2; rat): 2.73 µL/min/mg
O=C(O)C(O)Cc1ccc(O)c(O)c1 (centres unmarked) [Tanshinol, tanshinol] | – | – | – | – | – | – | 1,228 ± 160 μM | – | 978 ± 123 | 3,760 ± 907 μM | K m (human OAT4): 3,442 ± 940 μM; microsomal CLint (rat Oat3; rat, other cell line): 0.07 µL/min/mg
O=C(/C=C/c1ccc(O)c2c1[C@H](C(=O)O)[C@@H](c1ccc(O)c(O)c1)O2)O[C@H](Cc1ccc(O)c(O)c1)C(=O)O [Lithospermic acid, lithospermic acid] | 2.91 ± 0.17 | 0.94 ± 0.23 | 1.51 ± 0.27 | 1.36 ± 0.33 | – | – | – | – | – | – | –
O=C(/C=C/c1ccc(O)c(O)c1)O[C@H](Cc1ccc(O)c(O)c1)C(=O)O [Rosmarinic acid, rosmarinic acid] | – | – | – | – | substrates | substrates | 48.6 ± 4.2 µM | substrates | 119 ± 15 | 24.0 ± 4.2 µM | substrate of human OAT4 (human OAT4): relatively weak substrates; K m (human OAT4): 325 ± 53 µM; TransportTC/TransportMC ratio (net transport ratio) (human OAT4; human, 100 μM): 7.27 ± 0.77; microsomal CLint (human OAT4; human, other cell line): 0.15 µL/min/mg; TransportTC/TransportMC ratio (net transport ratio) (rat Oat3; rat, 100 μM): 4.45 ± 1.12; microsomal CLint (rat Oat3; rat, other cell line): 0.15 µL/min/mg; TransportTC/TransportMC ratio (net transport ratio) (human OAT2; human, 100 μM): 716 ± 86; microsomal CLint (human OAT2; human, other cell line): 19.1 µL/min/mg; TransportTC/TransportMC ratio (net transport ratio) (rat Oat2; rat, 100 μM): 334 ± 18; microsomal CLint (rat Oat2; rat, other cell line): 5.2 µL/min/mg
O=C(/C=C/c1ccc(O)c(O)c1/C=C/c1ccc(O)c(O)c1)O[C@H](Cc1ccc(O)c(O)c1)C(=O)O [Salvianolic acid A, salvianolic acid A] | – | – | – | – | not substrates | not a substrate | – | not substrates | – | – | TransportTC/TransportMC ratio (net transport ratio) (human OAT4; human, 100 μM): 1.56 ± 0.23; TransportTC/TransportMC ratio (net transport ratio) (rat Oat3; rat, 100 μM): 1.09 ± 0.35; TransportTC/TransportMC ratio (net transport ratio) (human OAT2; human, 100 μM): 2.25 ± 0.47; TransportTC/TransportMC ratio (net transport ratio) (rat Oat2; rat, 100 μM): 1.41 ± 0.26
O=C(O)c1ccc(O)c(O)c1 [Protocatechuic acid, protocatechuic acid] | 1.56 ± 0.46 | 16.1 ± 2.8 | 417 ± 23 | 163 ± 30 | – | substrates | 185 ± 24 µM | substrates | 109 ± 6 | 117 ± 27 µM | microsomal CLint (rat Oat3; rat): 0.57 µL/min/mg; microsomal CLint (human OAT2; human): 20.7 µL/min/mg; microsomal CLint (rat Oat2; rat): 10.9 µL/min/mg
